In ChEMBL document CHEMBL4359858, “Potently inhibiting cancer cell migration with novel 3H-pyrazolo[4,3-f]quinoline boronic acid ROCK inhibitors” (Eur J Med Chem, 2019):
The source made the active and inactive calls. The calls are words filed in the database; no cut-off is given here.

Key:
[1] = target: T1, Rho-associated protein kinase 2 (Homo sapiens, UniProt O75116); assay: Inhibition of active ROCK2 (R11-11G) (unknown origin) at 100 nM using S6K as substrate incubated for 3 hrs by ADP-Glo kinase assay relative to control
Target sequence in this assay (O75116 whole entry, looked up, the tested form may be a part): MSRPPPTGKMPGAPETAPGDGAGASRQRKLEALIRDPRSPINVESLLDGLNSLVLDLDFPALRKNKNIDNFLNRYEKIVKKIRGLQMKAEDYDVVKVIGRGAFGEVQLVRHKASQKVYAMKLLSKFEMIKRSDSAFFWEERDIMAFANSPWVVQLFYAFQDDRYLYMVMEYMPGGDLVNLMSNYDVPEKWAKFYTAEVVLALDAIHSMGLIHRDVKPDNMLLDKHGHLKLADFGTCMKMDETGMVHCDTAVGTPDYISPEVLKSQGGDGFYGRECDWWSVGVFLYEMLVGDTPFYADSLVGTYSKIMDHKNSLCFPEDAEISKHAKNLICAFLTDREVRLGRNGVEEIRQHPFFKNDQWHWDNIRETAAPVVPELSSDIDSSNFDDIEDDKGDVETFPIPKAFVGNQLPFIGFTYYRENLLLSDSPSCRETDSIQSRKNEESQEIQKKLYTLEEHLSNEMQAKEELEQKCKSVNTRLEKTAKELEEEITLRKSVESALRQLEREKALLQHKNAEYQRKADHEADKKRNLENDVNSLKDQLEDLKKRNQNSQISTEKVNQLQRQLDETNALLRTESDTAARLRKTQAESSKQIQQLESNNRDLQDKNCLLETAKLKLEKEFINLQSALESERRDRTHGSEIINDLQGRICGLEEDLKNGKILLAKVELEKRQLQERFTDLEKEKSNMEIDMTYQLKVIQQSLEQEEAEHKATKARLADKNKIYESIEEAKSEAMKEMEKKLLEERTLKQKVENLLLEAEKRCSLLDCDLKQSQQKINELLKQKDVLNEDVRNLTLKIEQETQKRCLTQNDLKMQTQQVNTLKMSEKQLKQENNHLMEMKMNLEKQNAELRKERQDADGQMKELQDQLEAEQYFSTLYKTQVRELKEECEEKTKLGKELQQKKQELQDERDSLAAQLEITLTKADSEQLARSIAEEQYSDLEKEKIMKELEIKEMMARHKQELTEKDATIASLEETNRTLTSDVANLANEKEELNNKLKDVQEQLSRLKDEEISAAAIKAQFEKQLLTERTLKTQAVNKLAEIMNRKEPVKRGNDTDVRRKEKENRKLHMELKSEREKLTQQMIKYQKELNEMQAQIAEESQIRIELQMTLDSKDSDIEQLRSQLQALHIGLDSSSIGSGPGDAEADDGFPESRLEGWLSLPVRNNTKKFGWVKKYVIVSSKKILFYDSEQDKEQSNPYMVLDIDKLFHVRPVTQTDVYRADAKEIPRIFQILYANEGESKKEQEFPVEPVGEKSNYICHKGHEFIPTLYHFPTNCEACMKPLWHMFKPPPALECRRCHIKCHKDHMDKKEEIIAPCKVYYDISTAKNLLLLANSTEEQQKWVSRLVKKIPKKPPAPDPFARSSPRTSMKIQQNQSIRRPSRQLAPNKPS

[2] = target: T2, Rho-associated protein kinase 1 (Homo sapiens, UniProt Q13464); assay: Inhibition of recombinant human GST-tagged ROCK1 (1 to 535 residues) using myelin basic protein as substrate incubated for 30 mins by ADP-Glo assay
T2 sequence (Q13464 whole entry, the tested form may be a part): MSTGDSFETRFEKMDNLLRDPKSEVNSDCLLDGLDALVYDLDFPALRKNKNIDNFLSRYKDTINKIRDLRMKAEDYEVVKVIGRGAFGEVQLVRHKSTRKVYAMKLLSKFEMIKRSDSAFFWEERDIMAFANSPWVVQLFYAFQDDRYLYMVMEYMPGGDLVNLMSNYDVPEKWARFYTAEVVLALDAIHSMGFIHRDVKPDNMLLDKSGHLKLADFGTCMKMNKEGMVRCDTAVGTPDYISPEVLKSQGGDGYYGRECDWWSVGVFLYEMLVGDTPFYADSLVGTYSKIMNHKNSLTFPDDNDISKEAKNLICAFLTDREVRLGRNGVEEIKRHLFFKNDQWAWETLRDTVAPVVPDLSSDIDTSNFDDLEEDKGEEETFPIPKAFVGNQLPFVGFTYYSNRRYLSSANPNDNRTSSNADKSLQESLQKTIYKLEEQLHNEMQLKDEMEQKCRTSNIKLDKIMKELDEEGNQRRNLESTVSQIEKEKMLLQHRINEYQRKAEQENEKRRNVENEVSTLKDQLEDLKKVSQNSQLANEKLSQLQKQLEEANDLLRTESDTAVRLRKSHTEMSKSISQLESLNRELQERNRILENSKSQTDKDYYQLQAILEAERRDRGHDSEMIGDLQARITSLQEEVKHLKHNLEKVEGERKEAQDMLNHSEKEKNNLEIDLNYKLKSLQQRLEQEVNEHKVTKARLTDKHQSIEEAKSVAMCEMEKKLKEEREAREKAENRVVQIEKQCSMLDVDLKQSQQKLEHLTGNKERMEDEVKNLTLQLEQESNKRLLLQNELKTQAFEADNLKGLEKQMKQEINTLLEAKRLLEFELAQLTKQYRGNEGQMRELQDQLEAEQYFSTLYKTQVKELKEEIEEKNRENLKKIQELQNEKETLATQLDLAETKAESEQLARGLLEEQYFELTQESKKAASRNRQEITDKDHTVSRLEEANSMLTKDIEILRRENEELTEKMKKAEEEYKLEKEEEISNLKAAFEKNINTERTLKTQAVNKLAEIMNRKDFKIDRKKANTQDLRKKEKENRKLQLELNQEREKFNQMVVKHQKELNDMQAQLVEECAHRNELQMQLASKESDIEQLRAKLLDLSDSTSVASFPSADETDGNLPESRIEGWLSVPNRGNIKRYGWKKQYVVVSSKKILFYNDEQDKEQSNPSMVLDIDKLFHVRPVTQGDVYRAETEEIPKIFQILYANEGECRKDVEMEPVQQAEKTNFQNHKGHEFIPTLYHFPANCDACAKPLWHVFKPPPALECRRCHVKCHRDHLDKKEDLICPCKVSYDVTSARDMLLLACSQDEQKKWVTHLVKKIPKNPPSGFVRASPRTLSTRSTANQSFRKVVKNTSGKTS

[3] = target: T1, Rho-associated protein kinase 2; assay: Inhibition of recombinant human GST-tagged ROCK2 (1 to 552 residues) using myelin basic protein as substrate incubated for 30 mins by ADP-Glo assay
Target sequence in this assay (O75116 whole entry, the tested form may be a part): as the sequence (O75116 whole entry, looked up, the tested form may be a part) above

[4] = target: T1, Rho-associated protein kinase 2; assay: Inhibition of human ROCK2 using KEAKEKRQEQIAKRRRLSSLRASTSKSGGSQK as substrate incubated for 20 mins in presence of [gamma33P]ATP by filter binding method
Target sequence in this assay (O75116 whole entry, the tested form may be a part): as the sequence (O75116 whole entry, looked up, the tested form may be a part) above

[5] = target: T2, Rho-associated protein kinase 1; assay: Inhibition of human ROCK1 using KEAKEKRQEQIAKRRRLSSLRASTSKSGGSQK as substrate incubated for 20 mins in presence of [gamma33P]ATP by filter binding method
[6] = target: T2, Rho-associated protein kinase 1; assay: Binding affinity to ROCK1 (unknown origin) incubated for 1 hrs by qPCR analysis
[7] = target: T1, Rho-associated protein kinase 2; assay: Binding affinity to ROCK2 (unknown origin) incubated for 1 hr by qPCR analysis
Target sequence in this assay (O75116 whole entry, the tested form may be a part): as the sequence (O75116 whole entry, looked up, the tested form may be a part) above

[8] = tested on: MDA-MB-231; assay: Inhibition of cell migration of human MDA-MB-231 cells at 1 uM incubated for 24 hrs; type: functional, cell-based
[9] = Cytotoxicity against human MDA-MB-231 cells assessed as cell viability at 10 uM incubated for 12 hrs by CellTiter-Blue assay relative to control; type: cell-based; settings: read-out: Activity
[10] = Cytotoxicity against human MDA-MB-231 cells assessed as cell viability at 10 uM incubated for 24 hrs by CellTiter-Blue assay relative to control; type: cell-based; settings: read-out: Activity
[11] = tested on: MDA-MB-231; assay: Cytotoxicity against human MDA-MB-231 cells assessed as reduction in cell viability at 5 uM incubated for 12 hrs by CellTiter-Blue assay; type: cell-based; settings: mda-mb-231, 12 h

| SMILES | inhibition [1] | further results |
| --- | --- | --- |
| COc1c(B(O)O)cccc1-c1nc2ccc3[nH]ncc3c2cc1-c1ccc(Cl)cc1 | Active |  |
| COc1c(B(O)O)cccc1-c1cc(-c2cc(F)cc(F)c2)c2c(ccc3[nH]ncc32)n1 | 10 to 15% |  |
| COc1c(B(O)O)cccc1-c1cc(-c2ccc(F)c(Cl)c2)c2c(ccc3[nH]ncc32)n1 | 10 to 15% |  |
| OB(O)c1ccc(-c2cc(-c3ccc(F)c(Cl)c3)c3c(ccc4[nH]ncc43)n2)cc1F | 10 to 15% |  |
| COc1nc(N[C@H]2CC[C@H](N)CC2)c(F)cc1C(N)=O |  | IC50 [2]: 10 nM; IC50 [3]: 7.8 nM |
| COc1c(B(O)O)cccc1-c1nc2ccc3[nH]ncc3c2cc1-c1ccncc1 | Active |  |
| COc1c(B(O)O)cccc1-c1nc2ccc3[nH]ncc3c2cc1C | Active |  |
| Cc1ccc(C(=O)OCc2ccc([C@@H](CN)C(=O)Nc3ccc4cnccc4c3)cc2)c(C)c1 |  | inhibition [8]: inactive; Activity [11]: Toxic |
| Cc1n[nH]c2ccc3nc(-c4sccc4B(O)O)c4c(c3c12)CCC4 | Active |  |
| c1nc2ccc3[nH]ncc3c2c2c1CCCC2 | 10 to 15% |  |

Second part, led by results:

| inhibition [1] | SMILES | further results |
| --- | --- | --- |
| Active | OB(O)c1ccc(-c2nc3ccc4[nH]ncc4c3c3c2CCCC3)o1 |  |
| Active | OB(O)c1ccc(-c2nc3ccc4[nH]ncc4c3c3c2CCCC3)cc1F |  |
| Active | OB(O)c1cccc(-c2nc3ccc4[nH]ncc4c3c3c2CCCC3)c1 |  |
| Active | OB(O)c1cccc(-c2nc3ccc4[nH]ncc4c3cc2-c2ccccc2)c1F |  |
| 59% | COc1c(B(O)O)cccc1-c1nc2ccc3[nH]ncc3c2c2c1CCC2 | IC50 [4]: 0.51 nM; IC50 [5]: 1.22 nM; Kd [6]: 1.5 to 1.8 nM; Kd [7]: 1.2 to 1.3 nM; inhibition [8]: Active; viability at 12 h, 10 µM [9]: 75 to 80%; viability at 24 h, 10 µM [10]: 60 to 63% |
| Active | COc1ccc(-c2nc3ccc4[nH]ncc4c3c3c2CCCC3)cc1B(O)O |  |
| Active | OB(O)c1csc(-c2nc3ccc4[nH]ncc4c3c3c2CCCC3)c1 |  |
| Active | OB(O)c1ccc(-c2nc3ccc4[nH]ncc4c3c3c2CCCC3)cc1 |  |
| Active | c1cc(-c2nc3ccc4[nH]ncc4c3c3c2CCCC3)cs1 |  |
| Active | OB(O)c1cccc(-c2nc3ccc4[nH]ncc4c3cc2-c2ccc(F)c(Cl)c2)c1F |  |
| 32% | COc1c(B(O)O)cccc1-c1nc2ccc3[nH]nc(C)c3c2c2c1CCC2 |  |
| Active | OB(O)c1cccc(-c2nc3ccc4[nH]ncc4c3c3c2CCCC3)c1F |  |
| Active | c1csc(-c2nc3ccc4[nH]ncc4c3c3c2CCCC3)c1 |  |
